Results taken from BigSolDB 2.1.

COc1ccc(CN2CCNCC2)c(OC)c1OC.Cl.Cl
solubility (mole fraction)
Details | 278.15 K | 283.15 K | 288.15 K | 293.15 K | 298.15 K | 303.15 K | 308.15 K | 313.15 K | 318.15 K | 323.15 K
in 1,4-dioxane | – | – | 5.08e-05 | 6.07e-05 | 7.16e-05 | 8.25e-05 | 9.48e-05 | 0.000109 | 0.000124 | 0.000141
in 2-butanone | 6.02e-06 | 6.56e-06 | 7.1e-06 | 7.72e-06 | 8.35e-06 | 9.05e-06 | 9.85e-06 | 1.06e-05 | 1.15e-05 | 1.24e-05
in DMF | 0.00053 | 0.000566 | 0.000609 | 0.000658 | 0.000705 | 0.000754 | 0.000803 | 0.000857 | 0.000913 | 0.000975
in acetone | 6.23e-06 | 6.82e-06 | 7.47e-06 | 8.16e-06 | 8.85e-06 | 9.62e-06 | 1.03e-05 | 1.11e-05 | 1.2e-05 | 1.3e-05
in acetonitrile | 1.23e-05 | 1.37e-05 | 1.49e-05 | 1.63e-05 | 1.77e-05 | 1.9e-05 | 2.04e-05 | 2.19e-05 | 2.38e-05 | 2.58e-05
in ethanol | 0.000583 | 0.000652 | 0.000727 | 0.000805 | 0.00089 | 0.000987 | 0.00109 | 0.0012 | 0.00132 | 0.00145
in ethyl acetate | 0.00201 | 0.00209 | 0.00217 | 0.00226 | 0.00234 | 0.00244 | 0.00254 | 0.00264 | 0.00275 | 0.00286
in isopropanol | 7.61e-05 | 9.15e-05 | 0.00011 | 0.000133 | 0.000157 | 0.000184 | 0.000215 | 0.000247 | 0.000287 | 0.000333
in methanol | 0.00353 | 0.00402 | 0.00458 | 0.00524 | 0.00603 | 0.00682 | 0.00777 | 0.00882 | 0.00993 | 0.0111
in n-butanol | 0.000131 | 0.000153 | 0.000177 | 0.000201 | 0.000232 | 0.000263 | 0.000297 | 0.000336 | 0.000383 | 0.000432
in n-propanol | 0.000193 | 0.000217 | 0.000246 | 0.000281 | 0.000322 | 0.000366 | 0.000413 | 0.000464 | 0.000521 | 0.000581
in toluene | 7.02e-07 | 8.19e-07 | 9.58e-07 | 1.12e-06 | 1.33e-06 | 1.57e-06 | 1.83e-06 | 2.12e-06 | 2.43e-06 | 2.76e-06
